From PubChem BioAssay AID2060512 (Molecular Pharmacology Branch, DTP, NCI, 2025)
pIC50: −log10 of the molar value. Values joined by “and” are separate entries in the source; they are usually repeats but may differ in a detail not shown here. Equal entries are not always repeated.

Test system: 186277-243-T-J2-PDC complex spheroid viability
Assay: Anticancer human tumor 186277-243-T-J2-PDC patient-derived colon adenocarcinoma cell line growth inhibition [GQUAD]
Conditions: for viability, T/C: stronger effect = lower value
From the text: DNA G-quadruplex Stabilizer Agents in Combinations in Complex Spheroids
A high-throughput screen of multi-cell type tumor spheroids was designed to identify active combinations of DNA G-quadruplex stabilizer agents and targeted small molecules. Complex spheroids include a stromal component modeled by human endothelial cells (HUVEC) and fibroblasts modeled by human mesenchymal stem cells (MSCs). The concentration ranges selected for each drug and investigational agent were based upon clinically achievable concentrations if the clinical Cmax of the agent was known.
Compounds. The drugs and investigational agents: pidnarulex (CX-5461; NSC782164), APTO-253 (NSC789042), BRACO-19 (NSC847499), peposertib (NSC802822), ceralasertib (NSC780249), elimusertib (NSC800525), camonsertib (NSC841442), AZD-1390 (NSC803789), olaparib (NSC753686), talazoparib (NSC767125), ART-558 (NSC835418), sotorasib (NSC818433), MRTX-1133 (NSC836407), SN-38 (NSC673596), topotecan (NSC609699), etoposide (NSC141540), doxorubicin (NSC123127), gemcitabine (NSC613327), 5-fluorouracil (NSC19893), paclitaxel (NSC125973), vemurafenib (NSC761431), panobinostat (NSC761190), R-306465 (JNJ-16241199; NSC773264), adavosertib (NSC754352), TP-3654 (NSC805149), carboplatin (NSC241240), KSQ-4279 (NSC840948), and staurosporine (NSC755774) were obtained from the National Cancer Institute (NCI) Developmental Therapeutics Program Chemical Repository (34). The FDA-approved anticancer drug set is available from the NCI Developmental Therapeutics Program. […] The stock solutions were prepared in dimethyl sulfoxide (DMSO, Sigma-Aldrich, St. Louis, MO, cat. D2650) at 800-fold the tested concentration and stored at -70 degrees C prior to their use. All drugs and investigational agents were tested over a range starting from a high concentration at or near the clinical Cmax and decreasing in half-log increments. If the clinical Cmax for an agent had not been determined, the highest concentration tested was 10 microM.
2.3 Cell Culture. All cells were maintained in an incubator at 37 degrees C and 5% CO2 with 95% humidity. The PDC lines were cultured according to standard operating procedures established by the NCI PDMR. All PDCs were thawed and cultured in Matrigel-coated flasks prepared with a working solution of 1X Ham's F-12 nutrient mix, without supplementation (Invitrogen, cat. 11765054), 100 U/mL penicillin-streptomycin (Invitrogen, cat. 15140122), and 2.5% Matrigel (Corning Inc., cat. 354248) for the first three passages. The 857933-349-R-J2-PDC line was cultured in 6C/Colon 1B media, which includes advanced DMEM/F-12 (Thermo Fisher Scientific, cat. 12634028), 10 mM HEPES (Thermo Fisher Scientific, cat. 15630080), 1X GlutaMAX supplement (Thermo Fisher Scientific, cat. 35050061), 0.1 mg/mL primocin (InvivoGen, cat. ant-pm-2), 10% defined fetal bovine serum, heat inactivated (HyClone Laboratories Inc., cat. SH30070.03HI), 50% L-WRN conditioned media (ATCC, cat. CRL-3276), 1.25 mM N-Acetyl-L-cysteine (Sigma-Aldrich, cat. A9165), 10 mM nicotinamide (Sigma-Aldrich, cat. N0636), 1X B-27 supplement (Thermo Fisher Scientific, cat. 17504044), 1X N-2 supplement (Thermo Fisher Scientific, cat. 17502048), 10 microM Y-27632 dihydrochloride (Tocris Bioscience, cat. 1254), and 50 ng/mL human EGF recombinant protein (Thermo Fisher Scientific, cat. PHG0311). The 485176-168-R4-J1-PDC line was cultured in Panc media, which includes all 6C/Colon 1B media components plus 100 ng/mL human FGF-10 (Thermo Fisher Scientific, cat. 100-26), 500 nM SB-431542 (Selleckchem, cat. S1067), and gastrin (Tocris, cat. 3006).
[…]

[1] = compound alone, run of 04/16/2024
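Also: spheroids exposed to drugs for 7 days.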
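For viability, T/C in this document: 100% = DMSO vehicle control viability.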

| pIC50 (curve of compound) | pIC50 [1] | pIC50 (compound alone, run of 04/22/2024) | IC50 [1] | Structure (SMILES) | viability, T/C (compound 0.0316 µM) | viability, T/C (compound 0.1 µM) | viability, T/C (compound 0.316 µM) | viability, T/C (compound 1 µM) | viability, T/C (compound 3.16 µM) | viability, T/C (compound 10 µM) | viability, T/C (compound 0.000999 µM) | viability, T/C (compound 0.00316 µM) | viability, T/C (compound 0.00999 µM) | viability, T/C (compound 0.0999 µM) |
| --- | --- | --- | --- | --- | --- | --- | --- | --- | --- | --- | --- | --- | --- | --- |
| 6.19 and 6.41 and 6.31 | – | – | – | COc1cccc2c1C(=O)c1c(O)c3c(c(O)c1C2=O)CC(O)(C(=O)CO)CC3OC1CC(N)C(O)C(C)O1 (stereo not given) | 108% and 97.9% and 88.6% | 117% and 91.2% and 90.2% | 83.2% and 57.1% and 66.7% | 29.7% and 15.8% and 22.8% | 4.47% and 0.22% and 0.3% | 0.23% and 0.19% and 0.13% | – | – | – | – |
| 7.38 and 7.25 and 7.20 | – | – | – | Cc1[nH]c2ccccc2c1CCNCc1ccc(/C=C/C(=O)NO)cc1 | 60% and 92.1% and 97.2% | – | 0.49% and 2.16% and 2.64% | – | – | – | 107% and 92.7% and 99% | 89.4% and 96.9% and 90% | 92.2% and 94.9% and 101% | 18.4% and 8.39% and 19.1% |
| < 5.00 | – | – | – | Cc1cccc(N(C)C(=O)C2C(O)CCN2c2nc(C)cc(C(F)(F)F)c2C#N)c1 (stereo not given) | 109% and 93.9% and 95.1% | 91% and 94.3% and 102% | 95.7% and 97.1% and 115% | 102% and 99.7% and 99.6% | 116% and 97.7% and 102% | 102% and 104% and 91.5% | – | – | – | – |
| < 6.50 | – | – | – | Cn1ncnc1[C@H]1c2n[nH]c(=O)c3cc(F)cc(c23)N[C@@H]1c1ccc(F)cc1 | 111% and 110% and 97.4% | – | 92.4% and 86.5% and 90.8% | – | – | – | 99.3% and 96.1% and 115% | 93.5% and 96.6% and 91% | 94.1% and 100% and 98.4% | 87.5% and 91.4% and 106% |
| > 7.50 | – | – | – | Nc1ccn(C2OC(CO)C(O)C2(F)F)c(=O)n1 (stereo not given) | 17% and 8.09% and 31% | 11.1% and 8.48% and 13.3% | 11.3% and 9.27% and 10.2% | 11.5% and 8.56% and 11.1% | 12.8% and 8.21% and 8.72% | 10.8% and 8.32% and 10.6% | – | – | – | – |
| 6.76 and 6.74 | – | – | – | O=C(NO)c1cnc(N2CCN(S(=O)(=O)c3ccc4ccccc4c3)CC2)nc1 | 108% and 104% and 95.6% | 87.7% and 95.5% and 89.9% | 7.49% and 8.52% and 11.5% | 0.33% and 0.31% and 0.48% | 0.27% and 0.25% and 0.13% | 0.27% and 0.25% and 0.15% | – | – | – | – |
| < 5.00 | – | – | – | O=C(c1cc(Cc2n[nH]c(=O)c3ccccc23)ccc1F)N1CCN(C(=O)C2CC2)CC1 | 102% and 105% and 100% | 108% (2×) and 94.6% | 96.4% and 112% and 87.3% | 94.3% and 104% and 77.3% | 93.3% and 92% and 82.2% | 62.3% and 64.2% and 66.5% | – | – | – | – |

Further lines, the molecule ahead of its results:

| Structure (SMILES) | pIC50 (curve of compound) | pIC50 [1] | pIC50 (compound alone, run of 04/22/2024) | IC50 [1] | viability, T/C (compound 0.0316 µM) | viability, T/C (compound 0.1 µM) | viability, T/C (compound 0.316 µM) | viability, T/C (compound 1 µM) | viability, T/C (compound 3.16 µM) | viability, T/C (compound 10 µM) | viability, T/C (compound 0.000999 µM) | viability, T/C (compound 0.00316 µM) | viability, T/C (compound 0.00999 µM) | viability, T/C (compound 0.0999 µM) |
| --- | --- | --- | --- | --- | --- | --- | --- | --- | --- | --- | --- | --- | --- | --- |
| COc1cc(C2c3cc4c(cc3C(OC3OC5COC(C)OC5C(O)C3O)C3COC(=O)C23)OCO4)cc(OC)c1O (stereo not given) | 5.50 and 5.90 and 5.88 | – | – | – | 103% and 110% and 100% | 100% and 101% and 85.4% | 102% and 83.6% and 82.1% | 72.1% and 50.7% and 50% | 52.7% and 37% and 36.2% | 19.4% and 20.9% and 16.9% | – | – | – | – |
| COc1ccc([C@@H](O)c2cc(-c3ncnc4cc(N5CCOCC5)ccc34)c(F)cc2Cl)nn1 | 5.19 and 5.31 and 5.23 | – | – | – | 97.6% and 103% (2×) | 84.1% and 107% and 101% | 115% and 112% and 97.2% | 95.7% and 90.8% and 108% | 63% and 66.2% and 70% | 41.8% and 24.9% and 33.5% | – | – | – | – |
| COc1ncnc(C2CC2)c1-c1ncc2cnn(Cc3ccc(-c4nc(C(F)(F)F)cn4C(C)C)cc3)c2n1 | < 5.00 | – | – | – | 90% and 113% and 103% | 95.5% and 108% and 94% | 90.5% and 94.9% and 102% | 88.4% and 101% and 105% | 96% and 96.8% and 92.5% | 76.6% and 96.9% and 106% | – | – | – | – |
| Cc1[nH]c2ccc(F)cc2c1-c1nc2c3cccnc3c3ncccc3c2[nH]1 | – | < 5.00 | < 5.00 | – | 100% [middle of 12 runs] | 101% [middle of 12 runs] | – | 107% [middle of 12 runs] | 98.9% [middle of 12 runs] | 92.4% [middle of 12 runs] | – | – | – | – |
| Cc1cnc(CNC(=O)c2c(=O)c3ccc(N4CCCN(C)CC4)nc3n3c2sc2ccccc23)cn1 | – | – | – | 2.36 µM [middle of 12 runs] | 97.7% [middle of 12 runs] | – | 76.8% [middle of 12 runs] | 61.5% [middle of 12 runs] | 43.7% [middle of 12 runs] | 39.7% [middle of 12 runs] | – | – | – | – |
| O=c1[nH]cc(F)c(=O)[nH]1 | 5.23 and < 5.00 | – | – | – | 94.6% and 93.4% and 110% | 94.9% and 95.8% and 93.8% | 104% and 108% and 112% | 97.6% and 114% and 107% | 62.5% and 75.2% and 60.1% | 39.6% and 52.2% and 50.6% | – | – | – | – |
